Reference: publication PMC8072159, “5-Bis-(2,6-difluoro-benzylidene) Cyclopentanone Acts as a Selective 11β-Hydroxysteroid Dehydrogenase one Inhibitor to Treat Diet-Induced Nonalcoholic Fatty Liver Disease in Mice” (Frontiers in Pharmacology, 2021)
Entries after “also recorded” stand apart in the source; their conditions may differ.

What was measured:
Assay type in all cases: biochemical
11β-HSD1 = target: T1, 11β-HSD1 (Homo sapiens, UniProt P28845); assay: 11β-HSD1 reductive activity in human liver microsomes
T1 construct: purchased Gentest (Woburn, MA); host or cells: human liver microsomes (tissue)
Protocol: Determination of 11β-HSD1 in Rat, Mouse, and Human Liver Microsomes
The reductive activity of 11β-HSD1 in rat, mouse, and human liver microsomes was measured as previously described ([Ge et al., 2005]). In short, the 11β-HSD1 activity assay tube contained 25 nM substrate, 11DHC (for rats or mice) or cortisone (for humans), spiked with 60,000 dpm of each 3H-steroid. 11β-HSD1 activity was measured using 11-DHC or cortisone as a substrate. A 25 nM steroid substrate is used because the concentration is within the physiological concentration range. Rat (10 μg), mouse (10 μg) and human (4 μg) liver microsomes were incubated with 11-ketosteroids, 0.2 mM NADPH, and various concentrations (10^−10–10^−5 M) of drug candidates at 37 °C for 60–90 min. The inhibitory ability of the chemical relative to the control (DMSO solvent) was measured. […] The reaction was stopped by adding 10 µL of 1 mM glycyrrhetinic acid and 1 ml of ice-cold ether. […] The steroids in chloroform and methanol (90:10, v/v) were chromatographically separated on a thin layer plate, and radioactivity was measured using a scanning radiometer (System AR2000, Bioscan Inc., Washington, DC, United States). The percentage of 11DHC being converted to CORT or cortisone being converted to cortisol can be calculated by dividing the radioactivity count of 11-OH-steroids by the total count. […]

11β-HSD2 [1] = target: T2, 11β-HSD2 (Rattus norvegicus, UniProt P50233); assay: 11β-HSD2 activity in rat kidney microsomes; details: 100 μM
T2 construct: from tissue; host or cells: rat kidney microsomes prepared in house
T2 sequence (P50233 1-400): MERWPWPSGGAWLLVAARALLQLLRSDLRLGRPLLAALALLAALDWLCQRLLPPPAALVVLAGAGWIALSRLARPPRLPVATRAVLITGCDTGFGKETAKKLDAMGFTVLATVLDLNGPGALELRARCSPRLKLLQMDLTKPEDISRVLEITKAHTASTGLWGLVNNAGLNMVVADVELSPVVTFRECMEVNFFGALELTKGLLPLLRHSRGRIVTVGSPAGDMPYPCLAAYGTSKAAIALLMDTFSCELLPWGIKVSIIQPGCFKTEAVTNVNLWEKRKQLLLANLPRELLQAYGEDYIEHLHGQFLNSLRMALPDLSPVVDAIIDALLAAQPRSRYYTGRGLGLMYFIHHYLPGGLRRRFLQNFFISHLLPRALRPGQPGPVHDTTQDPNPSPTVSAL
Protocol: Preparation of Rat and Mouse Liver and Kidney Microsomes
The liver and kidney microsomes were prepared as previously described ([Guo et al., 2012]). Briefly, the tissue was homogenized in […] phosphate buffered saline (PBS) containing 0.25 M sucrose, and the nuclei and large cell debris were removed by centrifugation at 1500 g for 10 min. The supernatant was transferred to a tube and the mitochondria were removed by centrifugation at 10, 000 × g for 30 min. The supernatant was transferred to an ultracentrifuge tube and centrifuged twice at 105,000 × g, the resulting microsomal precipitate was collected. The protein content was measured by the BCA kit according to the manufacturer’s instruction. The protein concentration was adjusted to 20 mg/ml. These proteins were used to measure 11β-HSD1 and 11β-HSD2 activities.
(§1) Measurement of 11β-HSD2 Activity in Rat, Mouse, and Human Kidney Microsomes
The 11β-HSD2 assay was based on rat, mouse, and human kidney microsomes, as previously described ([Ge et al., 2005]). In brief, the 11β-HSD2 activity assay tube contained 25 nM substrate (cortisol for humans, CORT for rats and mice). […] The percentage conversion of cortisol to cortisone (humans) or CORT to 11DHC (rats and mice) was calculated by dividing the radioactive count of an 11keto-steroid product by the total count associated with both substrate and product.

11β-HSD2 [2] = target: T3, 11β-HSD2 (Homo sapiens, UniProt P80365); assay: 11β-HSD2 activity in human kidney microsomes; details: 100 μM
T3 construct: purchased Gentest (Woburn, MA); host or cells: human kidney microsomes (tissue)
T3 sequence (P80365 1-405): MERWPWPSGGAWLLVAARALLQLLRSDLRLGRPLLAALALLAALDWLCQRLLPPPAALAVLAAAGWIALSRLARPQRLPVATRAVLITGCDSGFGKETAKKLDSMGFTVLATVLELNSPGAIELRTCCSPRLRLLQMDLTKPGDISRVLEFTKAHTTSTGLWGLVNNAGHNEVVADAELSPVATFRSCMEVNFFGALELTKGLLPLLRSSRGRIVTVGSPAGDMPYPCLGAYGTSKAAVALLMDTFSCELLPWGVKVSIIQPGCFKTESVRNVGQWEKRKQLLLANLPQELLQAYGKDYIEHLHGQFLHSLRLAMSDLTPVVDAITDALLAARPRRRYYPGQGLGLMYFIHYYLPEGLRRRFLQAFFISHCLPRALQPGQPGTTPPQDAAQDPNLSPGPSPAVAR
Protocol: as §1
The 11β-HSD2 assay was based on rat, mouse, and human kidney microsomes, as previously described ([Ge et al., 2005]). In brief, the 11β-HSD2 activity assay tube contained 25 nM substrate (cortisol for humans, CORT for rats and mice). Renal microsomes (10 μg) were incubated with substrate and 0.2 mM NAD^+ for 30 min. Other procedures were described above. The percentage conversion of cortisol to cortisone (humans) or CORT to 11DHC (rats and mice) was calculated by dividing the radioactive count of an 11keto-steroid product by the total count associated with both substrate and product.

T1 sequence (P28845 whole entry): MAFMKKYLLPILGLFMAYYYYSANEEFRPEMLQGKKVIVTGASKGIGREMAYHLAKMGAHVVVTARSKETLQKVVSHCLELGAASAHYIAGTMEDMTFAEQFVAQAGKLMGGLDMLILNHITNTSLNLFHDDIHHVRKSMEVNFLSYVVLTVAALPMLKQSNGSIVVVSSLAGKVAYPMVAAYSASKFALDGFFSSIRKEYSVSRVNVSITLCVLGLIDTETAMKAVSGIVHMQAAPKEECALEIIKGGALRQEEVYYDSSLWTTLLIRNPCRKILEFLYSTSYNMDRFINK

inhibition at 100 µM (11β-HSD1; 100 μM, initial screening, read-out: 11β-HSD1 inhibition, human enzyme): 85.4 ± 1.67% | IC50 (11β-HSD1; human liver microsomes, 25 nM cortisone, NADPH): 621 nM
SMILES: O=C1/C(=C/c2c(F)cccc2F)CC/C1=C\c1c(F)cccc1F [WZS08, (2E,5E)-2,5-bis(2,6-difluorobenzylidene) Cyclopentanone]
effect on 11β-HSD2 activity, rat (11β-HSD2 [1]): did not affect; also recorded: almost no effect | effect on 11β-HSD2 activity, human (11β-HSD2 [2]): did not affect; also recorded: almost no effect
